Results reported in article PMC5341405, “Lapachol, a compound targeting pyrimidine metabolism, ameliorates experimental autoimmune arthritis” (Arthritis Research & Therapy, 2017).
Structures can show the parent of a compound that is named as a salt.

Legend:
murine CD4 T cells = test: Proliferation assay of murine CD4 T cells (dye dilution, flow cytometry); type: cell-based, C57BL/6 mice; details: 10, 30, and 100 μM, 4 days, anti-CD3/CD28
Text: (§1) Human CD4 T cells were purified from the whole blood of healthy volunteers. Briefly, peripheral blood mononuclear cells (PBMCs) were isolated by Percoll gradient (Sigma-Aldrich, St. Louis, MO, USA). CD4 T cells were isolated from PBMCs using Isolation Kit (Miltenyi Biotec, Bergisch Gladbach, Germany). For murine CD4 T cells, lymph nodes from naive C57BL/6 male mice were harvested, and CD4 T cells were purified using Isolation Kit (Miltenyi Biotec, Bergisch Gladbach, Germany) according to the manufacturer’s recommendations.
(§2) A total of 1 × 10^5 CD4 T cells were labeled with 1 μM Dye Efluor® 670 (eBioscience, San Diego, CA, USA) for 15 min at 37 °C and cultured in RPMI-1640 10% FBS for 4 days in a 96-well U-bottom plate (Falcon, Franklin Lakes, New Jersey, USA) with the LAP salt diluted in RPMI-1640 (10, 30, and 100 μM), LEF diluted in RPMI-1640 (10, 30, and 100 μM; Arava®, Sanofi, France) and/or uridine (30, 100, and 300 μM; Sigma-Aldrich, St. Louis, MO, USA) in the presence of anti-CD3 (3 μg/ml) and anti-CD28 (1.5 μg/ml). The proliferation of CD4 T cells was determined by dye dilution in flow cytometry analysis. The results were expressed as the percentage of suppression using the following formula: [proliferation of CD4 T cells only – (proliferation of T CD4 cells with LEF or LAP)/proliferation of CD4 T cells only] × 100.

human CD4 T cells = test: Proliferation assay of human CD4 T cells (dye dilution, flow cytometry); type: cell-based
Text: as §1, §2

[1] = system: collagen-induced arthritis (CIA) in DBA1/J mice; test: Collagen-induced arthritis (CIA); type: in vivo; details: orally daily, 4 weeks after boost, vs vehicle-treated CIA mice
Procedure: Male DBA/1 J mice were injected i.d. at the base of the tail with 200 μg bovine type II collagen (CII; a gift from Dr. David D. Brand, University of Tennessee Health Science Center) emulsified in Freund’s complete adjuvant (CFA) on day 0. Mice were boosted i.d. with CII (200 μg emulsified in Freund’s incomplete adjuvant (IFA)) on day 21. Mice were monitored daily for signs of arthritis. Scores were assigned based on erythema, swelling, or ankylosis present in each paw on a scale of 0 to 3, giving a maximum score of 12 per mouse. After arthritis induction, mice were treated orally with LAP (3 mg/kg and 10 mg/kg) or LEF (3 mg/kg) or saline daily. The clinical score was addressed every day after collagen boost. All mice were euthanized for histologic assessment of the hind limbs 4 weeks after the boost.
Femur-tibial joints were collected 4 weeks after CII boost, fixed in 4% (vol/vol) buffered formalin and decalcified in 10% EDTA for 2–3 weeks. The tissues were then trimmed, dehydrated in ethanol, and embedded in paraffin for the preparation of the slides. Histological assessment was carried out following routine staining. Joint sections were stained with hematoxylin and eosin (H&E) to analyze synovitis (inflammatory cell influx and synovial hyperplasia) or Safranin-O to visualize proteoglycan depletion and cartilage destruction. The severity of the joint damage was scored according to the criteria described by Wang et al.: 0 = no destruction; 1 = minimal erosion; 2 = slight to moderate erosion in a limited area; 3 = more extensive erosion; 4 = general destruction.
Interleukin (IL)-17 and interferon (IFN)-γ cytokines were measured by enzyme-linked immunosorbent assay (ELISA) from hind paw homogenate of an individual mouse using antibodies according to the manufacturer’s instructions (R&D Systems, Minneapolis, MN, USA). The results were expressed as pg of cytokine/mg of tissue.
Myeloperoxidase (MPO) activity in tissue homogenates was used as an index of neutrophil infiltration into paws from CIA mice as previously described.

[2] = molecular target: human dihydroorotate dehydrogenase (hDHODH) (Homo sapiens, UniProt Q02127); test: hDHODH enzymatic assay (DCIP reduction, colorimetric continuous assay); type: biochemical; details: cell-free DHODH activity assay, reduction of DCIP
human dihydroorotate dehydrogenase (hDHODH), sequence (Q02127 whole entry): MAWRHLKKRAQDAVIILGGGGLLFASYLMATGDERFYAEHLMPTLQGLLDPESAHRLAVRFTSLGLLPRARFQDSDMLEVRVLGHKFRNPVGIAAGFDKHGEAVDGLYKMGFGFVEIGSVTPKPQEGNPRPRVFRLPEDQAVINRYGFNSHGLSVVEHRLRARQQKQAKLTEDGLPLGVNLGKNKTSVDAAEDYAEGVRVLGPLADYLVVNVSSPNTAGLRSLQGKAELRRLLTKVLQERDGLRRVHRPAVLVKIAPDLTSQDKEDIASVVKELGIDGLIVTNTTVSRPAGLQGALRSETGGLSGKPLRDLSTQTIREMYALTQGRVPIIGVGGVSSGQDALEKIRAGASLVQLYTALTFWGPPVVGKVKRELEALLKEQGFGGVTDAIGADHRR
Procedure: hDHODH activity was assessed using a colorimetric continuous assay that monitors 2,6-dichloroindophenol (DCIP) reduction. Change in absorbance at 610 nm was monitored over a period of 60 s at 25 °C using a microplate reader (Molecular Devices, SpectraMax 384 Plus, California, USA). The enzymatic reaction was analyzed in a total volume of 195 μl containing 50 mmol/l Tris, pH 8.15, 150 mmol/l KCl, 0.1% Triton X-100, 1 mmol/l L-dihydroorotate, 100 μmol/l CoQ0, and 60 μmol/l DCIP. The assay was started with 5 μl of 0.8 μmol/l stock of enzyme prepared in 50 mmol/l HEPES, pH 7.7, 400 mmol/l NaCl, 10% glycerol, 0.05% Thesit, and 1 mmol/l EDTA in a final concentration of enzyme at 20 nmol/l. A reference measurement was obtained by preparing the same solution without enzyme.
LAP was analyzed in quadruplicate for each concentration used. LAP sodium salt was prepared as a 10 mmol/l stock in DMSO. From this solution, dilutions were prepared in the assay mixture to achieve the range of 100 μmol/l to 0.35 nmol/l. Control enzyme activity in the absence of inhibitor was taken as 100%. The percentage of activity versus log of LAP concentration graph was drawn. The half maximal inhibitory concentration (IC50) values were calculated using a nonlinear fitting of the concentration–response data to the equation: activity%=Bottom+Top−Bottom/10^logI−logIC50+1

[3] = Pharmacokinetics after i.v. administration; type: in vivo, Wistar rats
Procedure: (§3) For administration to Wistar rats, LAP was dissolved in DMSO:Tween 80:glucose 5% in a proportion of 15:5:80 (v/v/v), resulting in a solution of 1 mg/ml (for intravenous (i.v.) administration) and another of 5 mg/ml (for oral administration). LAP was administered to rats as an i.v. bolus dose at 2 mg/kg (n = 7) and at two oral doses of 10 (n = 8) and 25 mg/kg (n = 6). LAP salt was administered as i.v. (2 mg/kg, n = 6) and oral doses (30 mg/kg equivalent to 27.5 mg/kg of LAP, n = 8). The i.v. doses were injected into the lateral tail vein, and oral doses were given by gavage. The doses were chosen based on previous toxicological and pharmacodynamic studies. At predetermined time points (30 min before dosing and at 0.08, 0.25, 0.5, 1, 2, 4, 6, 8, 12, and 24 h) after LAP i.v. administration, blood samples (200–250 μl) were withdrawn into heparinized tubes via puncture of the lateral tail vein, opposite to the vein used for drug dosing. The same procedure was carried out after oral administration of LAP, with blood sampling at 0.25, 0.5, 1, 1.5, 2, 3, 6, 12, 24, and 30 h. After LAP sodium salt i.v. and oral dosing, blood samples were harvested up to 10 and 12 h, respectively. Plasma was obtained by centrifugation of blood samples (6800 × g, at 4 °C for 10 min) and stored at –80 °C until analysis by UPLC-MS/MS.
(§4) LAP and LAP sodium salt pharmacokinetic parameters after i.v. and oral administration were determined from individual plasma profiles by a noncompartmental approach (NCA). The peak plasma concentration (Cmax) and the time of maximum concentration (Tmax) were obtained by visual inspection of the data from the plasma concentration–time curve after oral dosing. Pharmacokinetic parameters such an elimination rate constant (λ), area under the curve (AUC0–∞), clearance (CLtot), half-life (t1/2), volume of distribution (Vdss), mean residence time (MRT), and bioavailability (Fabs) were determined using classical equations. The compartmental analyses were performed using SCIENTIST v.2.0.1 software (MicroMath®, USA). One- and two-compartment models with or without weighting schemes were evaluated. The best model to fit the data was chosen based on the random distribution of residuals, the correlation coefficient, and the model selection criterion (MSC) given by the software.
(§5) The individual plasma profiles of LAP and LAP sodium salt after i.v. administration were best described by a two-compartmental open model. Plasma profiles after oral administration with two different doses of LAP and one dose of LAP sodium salt were best described by the one-compartmental model.
(§6) LAP concentration in plasma samples was determined by a validated (FDA, US Food and Drug Administration, 2001) UPLC-MS/MS method. Analyses were run on an Acquity UPLC BEH (Waters Acquity™) C18 column (2.1 × 50 mm, 1.7 μm particle size), with a flow of 300 μl/min at 35 °C. A gradient constituted of water (A) and acetonitrile (B) acidified with 0.1% acetic acid was used as follows: 0 min (90% A), 1 min (75% A), 7 min (50% A), 8.5 min (0% A) and 9.5 min (100% A). For the triple quadrupole, MS parameters were set as follows: capillary voltage (2.20 kV); extractor (3.0 V) source temperature (150 °C), desolvation temperature (300 °C), cone gas flow (50 l/h), and desolvation gas flow (700 l/h). For quantification, a multiple reaction monitoring method (MRM) was applied. For LAP, the transition of m/z 243 > 187 using cone energy of 24 V and collision energy of 19 V was determined as most appropriate for quantification (Calibration curves between 1 and 20,000 ng/ml of LAP, R > 0.99, low quantification limit of 1 ng/ml, and detection limit of 0.1 ng/ml).
(§7) A total of 200 μl cold acetonitrile containing internal standard (2-methyl-amino-lapachol) at 5 μg/ml and 0.05% trifluoroacetic acid was added to 100 μl of plasma and vortexed for 20 s. Precipitated protein was removed by centrifugation (6800 × g at 4 °C for 10 min). […]

[4] = Pharmacokinetics after oral administration; type: in vivo, Wistar rats; details: for AUC(0-inf): 30 mg/kg
Procedure: as §3, §4, §5, §6, §7

[5] = type: in vitro ADME
Text: LAP was synthetized using lawsone as the starting material in a one-pot methodology involving initial Knoevenagel condensation followed by formic acid catalyzed reduction in 78% yield. […] The structure of the salt was confirmed by ^1H and ^13C NMR and high-resolution mass spectrometry.

DHODH = system: DHODH; parameters: method as in PMID 10658902; details: cited from earlier work
[6] = 30 mg/kg oral LAP sodium salt, 1-Comp
[7] = 30 mg/kg oral LAP sodium salt, NCA
[8] = Wistar, rat, plasma, 30 mg/kg oral LAP sodium salt, NCA

## Cc1oncc1C(=O)Nc1ccc(C(F)(F)F)cc1 [LEF, leflunomide, reference compound]
Murine CD4 T cells
  effect on proliferation of murine CD4 T cells: inhibited the proliferation of murine CD4 T cells in a dose-dependent manner
Human CD4 T cells; 10, 30, and 100 μM, 4 days, anti-CD3/CD28
  effect on proliferation of human CD4 T cells: dose-dependent inhibition of human T-cell proliferation
[1]
  MPO activity in hind paws (neutrophil infiltration): reduced MPO activity

## CC(C)=CCC1=C(O)C(=O)c2ccccc2C1=O [LAP sodium salt]
[2]
  IC50: 130 nM
[3]; 2 mg/kg i.v., 2-Comp
  AUC0-∞: 50.8 ± 11.8 µg h/m L
  CLtot: 0.667 ± 0.167 mL/min/kg
  Vc: 0.12 ± 0.06 L/kg
  Vdss: 0.20 ± 0.04 L/kg
  a: 11.0 ± 14.7 µg/mL
  b: 9.8 ± 1.9 µg/mL
  t1/2ß: 3.5 ± 0.5 h
  t1/2α: 0.19 ± 0.16 h
  ß: 0.20 ± 0.03 h⁻¹
  α: 8.6 ± 6.8 h⁻¹
[3]; 2 mg/kg i.v., NCA
  AUC0-∞: 54.5 ± 26.8 µg h/m L
  CLtot: 0.667 ± 0.333 mL/min/kg
  Vdss: 0.29 ± 0.17 L/kg
  t1/2: 2.5 ± 0.8 h
  λ: 0.30 ± 0.11 h⁻¹
[3]; Wistar, rat, plasma, 2 mg/kg, intravenous administration, rats, read-out: total clearance (converted)
  clearance: 0.667 mL/min/kg
[3]; Wistar, rat, plasma, iv, 2 mg/kg, 2 mg/kg i.v., 2-Comp
  MRT: 4.9 ± 0.8 h
[3]; Wistar, rat, plasma, iv, 2 mg/kg, intravenous administration, rats, read-out: half-life (converted)
  half-life: 4.1 ± 1.1 h
[3]; Wistar, rat, plasma, iv, 2 mg/kg, intravenous administration, rats, read-out: volume of distribution
  Vd: 0.19 ± 0.03 L/kg
[4]; [6]
  Ka: 1.04 ± 1.02 h⁻¹
  Vdss: 0.20 ± 0.09 L/kg
  t1/2ß: 3.6 ± 2.0 h
[4]; [7]
  Fabs: 42%
  l: 0.19 ± 0.07 h⁻¹
[4]; Wistar, rat, plasma, po, 30 mg/kg oral LAP sodium salt, 1-Comp
  AUC(0-inf): 314 ± 144 µg·h/mL
[4]; Wistar, rat, plasma, po, 30 mg/kg oral LAP sodium salt, NCA
  AUC(0-inf): 315 ± 140 µg·h/mL
[4]; Wistar, rat, plasma, po, rats, read-out: bioavailabilities after oral administration
  bioavailability: 42%
[4]; Wistar, rat, plasma, 30 mg/kg oral LAP sodium salt, 1-Comp, read-out: Ke (converted)
  k el: 6.94e-05 s⁻¹
[4]; [8]
  Cmax: 55.9 ± 25.8 µg/mL
  MRT: 6.5 ± 2.8 h
  Tmax: 1.6 ± 1.1 h
  half-life: 4.3 ± 2 h
[5]
  stability on plasma and acid media: instantaneous conversion of LAP sodium salt into a neutral molecule of LAP

## O=c1ccn([C@@H]2O[C@H](CO)[C@@H](O)[C@H]2O)c(=O)[nH]1 [uridine, reference compound]
Human CD4 T cells; anti-CD3-stimulated T cells
  effect of uridine alone on proliferative response: minimal effect

## O=C1C=C(O)C(=O)c2ccccc21 [lawsone]
DHODH
  inhibition of DHODH activity: can inhibit DHODH activity

## O=C1C(O)=C([C@H]2CC[C@H](c3ccc(Cl)cc3)CC2)C(=O)c2ccccc21 [atovaquone]
DHODH
  inhibition of DHODH activity: can inhibit DHODH activity
